Experimental data: ChEMBL document CHEMBL1132934, “Multivariate data analysis using D-optimal designs, partial least squares, and response surface modeling: A directional approach for the analysis of farnesyltransferase inhibitors” (J Med Chem, 2000)
Each block holds one compound with its values, some of them ahead of it. The source made the active and inactive calls. The calls are words filed in the database; no cut-off is given here.

Tests used:
[1] = target: T1, Protein farnesyltransferase (Homo sapiens, UniProt P49354+P49356); assay: Inhibition of farnesyltransferase by Ras/SPA assay; assay type: protein-complex assay
HCT-116 [2] = assay: (§1) […] inhibition of cellular activity in HCT116 colony formation assay; assay type: functional; conditions: Homo sapiens
HCT-116 [3] = assay: […] inhibition of cellular activity in HCT116 colony formation assay; AI means almost inactive; assay type: functional; conditions: Homo sapiens
HCT-116 [4] = assay: as §1; assay type: functional, Homo sapiens
[5] = target: T1, Protein farnesyltransferase; assay: Inhibition of Farnesyltransferase; assay type: protein-complex assay
HCT-116 [6] = assay: […] inhibition of cellular activity in HCT116 colony formation assay; CA means cytostatic activity; assay type: functional; conditions: Homo sapiens
[7] = Binding affinity against Ras SPA enzyme
[8] = Binding affinity against Ras protein

Compound: C=C(C(=O)N1C[C@H]2[C@@]3(c4ccccc4)CC[C@H](c4ccccc43)[C@@]2(C(=O)O)C1)c1ccccc1OC (racemic)
Ki [1]: 25 nM
IC50 (HCT-116 [2]): 720 nM
AI (HCT-116 [3]): inactive

Ki [1]: 420 nM
Compound: CONC(=O)[C@]12CN(C(=O)Cc3ccccc3OC)C[C@H]1[C@@]1(c3ccccc3)CC[C@@H]2c2ccccc21

Ki [1]: 40000 nM
Compound: COc1ccccc1CC(=O)N1C[C@@H]2[C@@H]3CC[C@@](c4ccccc4)(c4ccccc43)[C@@H]2C1

IC50 (HCT-116 [4]): 59 nM
Compound: C=C(C(=O)N1C[C@H]2[C@@]3(c4ccc(Br)cc4)CC[C@H](c4ccccc43)[C@@]2(C(=O)O)C1)c1ccccc1OC

IC50 [5]: 8 nM
IC50 (HCT-116 [2]): 45 nM
Compound: C=C(C(=O)N1C[C@H]2[C@@]3(c4ccc(C)cc4)CC[C@H](c4ccccc43)[C@@]2(C(=O)O)C1)c1ccccc1OC (racemic)
CA (HCT-116 [6]): cytostatic activity

Ki [7]: 2450 nM
Compound: COc1ccccc1CC(=O)N1C[C@H]2[C@@]3(c4ccccc4)CC[C@H](c4ccccc43)[C@@]2(C(=O)NN)C1

Ki [1]: 420 nM
Compound: C=C(C(=O)N1C[C@H]2[C@@]3(c4ccc5c(c4)CCO5)CC[C@H](c4ccccc43)[C@@]2(C(=O)O)C1)c1ccccc1OC

Compound: COc1ccccc1CC(=O)N1C[C@H]2[C@@]3(c4ccccc4)CC[C@H](c4ccccc43)[C@@]2(C(=O)O)C1 (racemic)
IC50 [5]: 200 nM
IC50 (HCT-116 [2]): > 10000 nM

Ki [1]: 738 nM
Compound: COc1ccccc1CC(=O)N1C[C@H]2[C@@]3(c4ccccc4)CC[C@H](c4ccccc43)[C@@]2(C(=O)NCC(=O)O)C1

Ki [7]: 2080 nM
Compound: COc1ccccc1CC(=O)N1C[C@H]2[C@@]3(c4ccccc4)CC[C@H](c4ccccc43)[C@@]2(C(=O)N[C@H](C)c2ccccc2)C1

Ki [1]: 25500 nM
Compound: C=C(C(=O)N1C[C@H]2[C@@]3(c4ccc(OCC(=O)O)cc4)CC[C@H](c4ccccc43)[C@@]2(C(=O)O)C1)c1ccccc1OC

Compound: COc1ccccc1CC(=O)N1C[C@H]2[C@@]3(c4ccccc4)CC[C@H](c4ccccc43)[C@@]2(C(=O)O)C1
Ki [1]: 140 nM

Ki [7]: 100000 nM
Compound: COc1ccccc1CC(=O)N1C[C@H]2[C@@]3(c4ccccc4)CC[C@H](c4ccccc43)[C@@]2(NC(=O)OCc2ccccc2)C1

Compound: COCCCC(=O)N1C[C@H]2[C@@]3(c4ccccc4)CC[C@H](c4ccccc43)[C@@]2(C(=O)O)C1
Ki [7]: 100000 nM

Compound: COc1ccccc1CC(=O)N1C[C@H]2[C@@]3(c4ccccc4)CC[C@](O)(c4ccccc43)[C@@]2(C(=O)O)C1
Ki [1]: 250 nM

Ki [1]: 32000 nM
Ki [8]: 32000 nM
Compound: O=C(Cc1ccccc1OCc1ccccc1)N1C[C@H]2[C@@]3(c4ccccc4)CC[C@H](c4ccccc43)[C@@]2(C(=O)O)C1

Compound: COc1ccccc1CC(=O)N1C[C@H]2[C@@]3(c4ccccc4)CC[C@H](c4c(O)cccc43)[C@@]2(C(=O)O)C1
Ki [1]: 50000 nM
